# “And” between values parts separate entries of the source, which are not always exact repeats. Equal values may be shown once.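 Growth conditions: 96-well plates. Treatment: test compound, 48 hours, 5 concentrations. Analysis: linear interpolation between bracketing concentrations; unreached endpoints set to highest concentration. GI50 = concentration required for 50% inhibition of growth. TGI: concentration producing complete growth inhibition.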 Where a SMILES comes first, the peptide text is derived from it. [ ]: non-standard residue; d: D form. Orn = NCCC[CH](N)C(=O)O
# Assays:
# Experiment in all cases: NCI-60 cell line screen, 48 h
# [1] = test system: A549 NSCLC
# [2] = test system: SW-620 colon
# [3] = test system: SF-539 CNS
# [4] = test system: MDA-MB-231 breast
# [5] = test system: NCI/ADR-RES ovarian
# [6] = test system: BT-549 breast
# [7] = test system: PC-3 prostate
# [8] = test system: MOLT-4 leukemia
# [9] = test system: SR leukemia
# [10] = test system: OVCAR-3 ovarian
SMILES,GI50 [1],TGI [1],GI50 [2],TGI [2],GI50 [3],TGI [3],GI50 [4],TGI [4],GI50 [5],TGI [5],GI50 [6],TGI [6],GI50 [7],TGI [7],GI50 [8],TGI [8] [µM],GI50 [9],TGI [9],GI50 [10],TGI [10]
CCN(CC)CCCC(C)Nc1ccnc2cc(Cl)c(SCc3ccccc3)cc12 (stereo not drawn),1.85 µM,3.59 µM,0.928 µM,2.92 µM,0.626 µM,2.04 µM,1.27 µM,2.9 µM,1.44 µM,3.17 µM,1.78 µM,3.28 µM,1.72 µM,3.96 µM,0.623 µM,4.14,0.173 µM,0.539 µM,2.31 µM,8.07 µM
COc1cccc(-c2cc(NCc3ccc4c(c3)OCO4)nc(N)n2)c1,0.057 µM,14.9 µM,0.0422 µM,16.5 µM,0.0909 µM,3.22 µM,0.228 µM,13.7 µM,0.0458 µM,0.494 µM,0.149 µM,5.15 µM,0.0868 µM,48.3 µM,0.11 µM,12.8,0.0453 µM,75 µM,0.0409 µM,0.988 µM
Cc1cccc2c(=O)c3c(sc12)c(NCCN)nc1ccccc13,0.823 µM,1.63 µM,0.794 µM,1.57 µM,0.917 µM,1.77 µM,0.664 µM,1.41 µM,0.909 µM,1.95 µM,1.33 µM,4.07 µM,0.717 µM,1.49 µM,0.887 µM,1.8,0.719 µM,1.85 µM,0.888 µM,1.79 µM
O=C(Nc1cccc(-n2cc(-c3ccncc3)c(-c3ccc(O)c(Cl)c3)n2)c1)Nc1ccc(Cl)c(C(F)(F)F)c1,1.83 µM,5.86 µM,2.78 µM,7.62 µM,1.76 µM,5.99 µM,1.84 µM,7.63 µM,2.96 µM,9.03 µM,1.82 µM,4.28 µM,1.77 µM,4.36 µM,1.64 µM,4.65,1.6 µM,5.6 µM,–,–
N=C(N)c1ccc(-c2ccc(-c3ccco3)o2)cc1F,3.04 µM,10.6 µM,1.72 µM,3.7 µM,1.6 µM,3.25 µM,1.6 µM,4.01 µM,2.66 µM,10.9 µM,2.19 µM,5.11 µM,–,–,2.27 µM,5.22,1.97 µM,5.4 µM,3.06 µM,9.77 µM
CCN1CCN(Cc2ccc3cc(C(=O)Nc4cc(NC(=O)c5ccc6c(c5)OCCO6)ccc4F)ccc3n2)CC1,0.0511 µM,11.6 µM,0.0462 µM,11 µM,0.0824 µM,0.72 µM,0.0332 µM,0.569 µM,0.369 µM,9.55 µM,0.146 µM,7.82 µM,0.0593 µM,11.6 µM,0.0504 µM,2.23,0.0443 µM,1.48 µM,0.0567 µM,0.766 µM
CC(=O)O[C@@H]1CC(=O)O[C@@H]2C[C@@H](CC/C(Cl)=C/C/C=C\1C)O[C@@H]2CO,> 25 µM,> 25 µM,> 25 µM,> 25 µM,> 25 µM,> 25 µM,> 25 µM,> 25 µM,> 25 µM,> 25 µM,24.5 µM,> 25 µM,> 25 µM,> 25 µM,> 25 µM,> 25,> 25 µM,> 25 µM,–,> 10.6 µM
O=C(O)C#Cc1ccc([N+](=O)[O-])cc1,–,> 100 µM,–,> 100 µM,–,> 100 µM,–,> 100 µM,–,> 100 µM,–,> 100 µM,–,> 100 µM,–,> 100,–,> 100 µM,–,> 100 µM
CC1=C(C(=O)Nc2ccc(Cl)c(Cl)c2)C(c2cccc(O)c2)NC(=S)N1 (stereo not drawn),–,–,12.5 µM,33.2 µM,8.15 µM,15.7 µM,8.44 µM,20 µM,–,–,7.97 µM,19.3 µM,9.54 µM,31.4 µM,16.8 µM,> 50,14.2 µM,49 µM,5.69 µM,12.5 µM
COc1ccc2cc(C(=O)/C=C/c3ccccc3OC)ccc2c1,4.69 µM,11.9 µM,2.81 µM,> 33.2 µM,1.72 µM,4.6 µM,2.73 µM,21.7 µM,3.19 µM,> 37.4 µM,4.55 µM,24.6 µM,2.62 µM,23.1 µM,1.26 µM,9.45,0.312 µM,–,0.821 µM,3.77 µM
COC(=O)C12OCC34C(CC5C(C)=CC(=O)C(O)C5(C)C3C(O)C1O)OC(=O)C(OC(=O)CC(C)C)C24 (stereo not drawn),< 0.0399 µM and 0.05 µM,–,0.042 µM and 0.05 µM,–,< 0.034 µM,–,–,0.0247 µM,0.288 µM,–,–,0.00549 µM,–,0.0121 µM,–,–,–,0.0506 µM,< 0.0518 µM,–
O=C(Nc1cccc2ccccc12)c1cc2ccccc2cc1O,2.52 µM,8.31 µM,2.91 µM,15 µM,3.28 µM,12.8 µM,1.77 µM,4.46 µM,2.17 µM,8.07 µM,3.6 µM,16.4 µM,2 µM,8.48 µM,3.08 µM,21.5,2.57 µM,9.73 µM,2.16 µM,6.85 µM
Cc1cc(Cl)ccc1Nc1nc(C(F)(F)F)ccc1C(=O)N/N=C/c1c(Cl)cccc1Cl,0.51 µM,> 100 µM,0.322 µM,> 100 µM,0.638 µM,4.07 µM,0.249 µM,–,0.445 µM,> 100 µM,0.194 µM,0.675 µM,0.268 µM,–,0.157 µM,0.597,0.263 µM,> 100 µM,0.102 µM,0.38 µM
COc1cc([C@@H]2c3cc4c(cc3[C@H](O)[C@H]3COC(=O)[C@@H]23)OCO4)cc(OC)c1OC,0.732 µM and 0.333 µM,> 100 µM,0.409 µM and 0.219 µM,> 100 µM,0.256 µM and 0.094 µM,0.876 µM and 0.4 µM,0.776 µM and 0.454 µM,> 100 µM,0.884 µM and 0.194 µM,> 10 µM,0.632 µM and 0.259 µM,> 42.5 µM,0.362 µM and 0.51 µM,> 100 µM,0.587 µM and 0.845 µM,> 100,0.222 µM,> 10 µM,0.303 µM and 0.159 µM,1.53 µM and 0.371 µM
C(#Cc1ccccc1C#Cc1ccccn1)c1ccc(OCCCCCCOc2ccc(C#Cc3ccccc3C#Cc3ccccn3)cc2)cc1,5.72 µM,13.8 µM,4.51 µM,10.6 µM,1.76 µM,7.63 µM,2.47 µM,9.64 µM,2.43 µM,18.3 µM,4.39 µM,12.1 µM,5.18 µM,14 µM,0.225 µM,5.41,2.45 µM,19.4 µM,2.31 µM,9.16 µM
Cn1c2ccccc2c(=S)c2cc(NC(=O)CCCCC(=O)Nc3ccc4c(c3)c(=S)c3ccccc3n4C)ccc21,–,> 100 µM,–,> 100 µM,–,> 100 µM,–,> 100 µM,–,> 100 µM,–,> 100 µM,–,> 100 µM,–,> 100,–,> 100 µM,–,> 100 µM
CCOC(=O)C1=C(N)Oc2cc(OC)ccc2C1c1ccc(F)c(F)c1 (stereo not drawn),2.08 µM,19.4 µM,0.516 µM,15.9 µM,2.13 µM,8.3 µM,2.48 µM,13.8 µM,0.703 µM,17 µM,2.05 µM,16.3 µM,2.33 µM,15.1 µM,1.58 µM,22.3,0.533 µM,16.7 µM,0.497 µM,6.09 µM
Cn1cc(C2=C(c3cccc(NCC(O)CO)c3)C(=O)NC2=O)c2cc(Cl)ccc21 (stereo not drawn),4.74 µM,17.6 µM,4.26 µM,15.7 µM,1.78 µM,6.9 µM,5.94 µM,15.5 µM,12.5 µM,> 25 µM,3.82 µM,9.3 µM,2.88 µM,12.9 µM,4.2 µM,18,3.03 µM,> 25 µM,1.06 µM,7.78 µM
O=C(Nc1cc(Cl)cc(Cl)c1)c1ccc(NC2=C(Cl)C(=O)N(Cc3ccccc3)C2=O)cc1,10.8 µM,32.4 µM,–,–,3.5 µM,13.7 µM,5.74 µM,22.4 µM,11.3 µM,26.7 µM,4.59 µM,19.3 µM,3.29 µM,12.7 µM,1.51 µM,4.91,1.51 µM,4.81 µM,1.99 µM,5.37 µM
Clc1cccc(Cc2cn3cc(-c4ccccc4)nc3s2)c1,3.93 µM,> 100 µM,1.26 µM,> 100 µM,8.31 µM,> 100 µM,1.91 µM,21.3 µM,3.49 µM,> 100 µM,28.8 µM,> 100 µM,14.4 µM,> 100 µM,> 100 µM,> 100,36.5 µM,> 100 µM,9.07 µM,> 100 µM
CNC(=S)N/N=C(/C)CCC/C(C)=N/NC(=S)NC,–,> 100 µM,–,> 100 µM,–,> 100 µM,–,> 100 µM,–,> 100 µM,–,> 100 µM,–,> 100 µM,–,0.303,–,> 100 µM,–,> 93.2 µM
CC(C)CC1NC(=O)C(CCCN)NC(=O)C(C(C)C)NC(=O)C2CCCN2C(=O)C(Cc2ccccc2)NC(=O)C(CC(C)C)NC(=O)C(CCCN)NC(=O)C(C(C)C)NC(=O)C2CCCN2C(=O)C(Cc2ccccc2)NC1=O (stereo not drawn) (cyclo(FPV[Orn]LFPV[Orn]L); configuration not given here),0.00914 µM and 0.0162 µM,0.149 µM and 1.09 µM,0.0123 µM and 0.0239 µM,0.422 µM and 1.17 µM,0.0146 µM and 0.0477 µM,0.421 µM and 1.05 µM,0.0209 µM and 0.0242 µM,0.146 µM and 0.0877 µM,0.614 µM and 2.14 µM,5.05 µM and 13.3 µM,0.0326 µM and 0.0459 µM,0.261 µM and 0.271 µM,0.00703 µM,0.14 µM and 1.12 µM,0.0236 µM,0.402,0.0148 µM and 0.036 µM,0.258 µM and 0.96 µM,0.0103 µM and 0.0322 µM,0.211 µM and 1.43 µM
COc1ccc(-c2oncc2-c2cc(OC)c3c(c2)OCO3)cc1,3.58 µM,> 100 µM,1.18 µM,> 100 µM,2 µM,5.92 µM,2.8 µM,54 µM,1.63 µM,24.4 µM,5.24 µM,> 100 µM,2.99 µM,> 66.1 µM,3.9 µM,> 92.6,1.13 µM,39.6 µM,3.15 µM,39 µM
CCNCCNc1cc(C2CCCC2)c(C#N)c2nc3ccccc3n12,3.59 µM,8.22 µM,2.82 µM,13.2 µM,1.67 µM,3.25 µM,2.37 µM,5.27 µM,4.55 µM,19 µM,2.45 µM,5.84 µM,6.1 µM,19.3 µM,–,–,1.66 µM,6.13 µM,1.7 µM,3.18 µM
O=C(/C=C/c1ccc2c(c1)OCO2)c1ccccc(=O)c1O,–,–,–,> 100 µM,–,–,–,> 100 µM,–,14.2 µM,–,47.6 µM,–,> 100 µM,–,> 100,–,> 100 µM,–,> 100 µM
C[C@H]1[C@H](C)CC[C@]2(C(=O)O)CC[C@]3(C)C(=CC[C@@H]4[C@@]5(C)CC[C@H](OC(=O)/C=C\c6ccc(O)cc6)C(C)(C)[C@@H]5CC[C@]43C)[C@H]12,2.02 µM,> 100 µM,17.6 µM,33.7 µM,2.9 µM,13.5 µM,2.55 µM,13.5 µM,3.02 µM,15 µM,9.58 µM,31.2 µM,–,–,4.56 µM,19.7,2.69 µM,6.66 µM,3.05 µM,21.2 µM
COC1(C)Cc2c(c(C)c(O)c3c2C(=O)C=C(Cl)C3=O)O1 (stereo not drawn),–,> 100 µM,–,47.1 µM,–,> 100 µM,–,39.9 µM,–,–,–,> 100 µM,–,> 100 µM,–,46.2,–,23.5 µM,–,> 72.8 µM

# Source: PubChem BioAssay (NCI)
